Experimental data as given in patent US20210030650A1, “USE OF A NOVEL COMPOSITION FOR PREVENTING OR SLOWING DOWN THE APPEARANCE OF UNSIGHTLY SIGNS RELATING TO THE PRESENCE OF EXCESS SEBUM” (SOCIETE D'EXPLOITATION DE PRODUITS POUR LES INDUSTRIES …, priority 2018, published 2021).
Like-named read-outs stand apart in the source and are kept apart here.

What was measured:
[1] = tested on: lipase; assay: Antilipase activity, in tubo method (1,2-diglyceride to glycerol, absorbance at 570 nm); assay type: biochemical; settings: for % inhibition of the lipase: Table 11 experiment
Description: This involves studying the ability of a composition to […] and regulate the activity of the lipase enzyme by an in tubo method, said enzyme having an inflammatory action.
The samples in the evaluation test are placed in tubo in the presence of lipase and 1,2-diglyceride and the absorbance of the samples is measured with a spectrophotometer at the wavelength 570 nm as soon as they are prepared and then after 60 minutes of incubation at 37° C., under the same spectral conditions. By virtue of a range of glycerol, the lipase activity of the samples can be calculated, as well as the percentage of inhibition, according to the following formulae:
Lipase activity=(amount of glycerol formed between 0 and 60 minutes)/(60 minutes×sample volume)
Percentage of inhibition=100×[(lipase activity of the control group)−(lipase activity of the test product)]/(lipase activity of the control group).

[2] = tested on: sebocytes of the SEBO662AR line; assay: Overproduction of lipids by testosterone-stimulated sebocytes (Bodipy lipid droplet imaging, standardized by nuclei count); assay type: cell-based
Excerpt: The imbalance in the cutaneous microbiota occurs in particular when the proliferation of Propionibacterium acnes is observed. In this case also, Propionibacterium acnes induces inflammation of the skin, on the one hand by inducing the overproduction of lipids by sebocytes and, on the other hand, by producing a lipase which converts triglycerides into free fatty acids, which are irritating and chemotactic for neutrophils.
The effect of the composition (C1A) on the overproduction of lipids was studied on sebocytes of the SEBO662AR line (Bioalternatives line) sensitive to stimuli, such as testosterone, to produce lipids.
The sebocytes were first of all treated for 4 hours with the composition to be tested (or a positive reference). The testosterone was then added for 7 days to the culture medium, with renewal of the treatments and of the stimulation after 3 days. The formation of lipid droplets was detected by imaging using the Bodipy® fluorescent probe and the results were standardized by counting the nuclei with Hoechst staining.
The values are expressed as means+/−sem [standard error of the mean=standard deviation/root (number of values)].
% stimulation=100×[mean (cells+treatment)/mean (cells stimulated with testosterone)]
% inhibition=100×[mean (cells+treatment)−mean (cells stimulated with testosterone)/mean (untreated cells)−mean (cells stimulated with testosterone)]

[3] = Table 9, 1 nM testosterone, 0.006% compound
[4] = Table 9, 1 nM testosterone, 0.012% compound

In the case of `O=C(O)CC(O)C(=O)OC1(C(=O)O)CC(OC(=O)C=Cc2ccc(O)c(O)c2)C(OC(=O)C=Cc2ccc(O)c(O)c2)C(OC(=O)C=Cc2ccc(O)c(O)c2)C1` (stereo not drawn) [Compound of formula (Ia), 1-O-Maloyl-3,4,5-tri-O-caffeoylquinic acid], the Lipase activity ([1]; Table 11, 0.00012% by weight, control 4.72) is reported as 4.65 +/− 0.03 mU/ml, the Lipase activity ([1]; Table 11, 0.00024% by weight, control 4.72) is reported as 4.15 +/− 0.03 mU/ml and the Lipase activity ([1]; Table 11, 0.0006% by weight, control 4.72) is reported as 2.16 +/− 0.07 mU/ml. For the same compound, the Lipase activity ([1]; Table 11, 0.0012% by weight, control 4.72) was 1.02 +/− 0.01 mU/ml, the “% inhibition of the lipase” value ([1]; 0.0006% by weight) was 54% and the “% inhibition of the lipase” value ([1]; 0.0012% by weight) was 78%. For the same compound, the “Lipids, % change vs testosterone-stimulated cells” value (“Lipids, % change” below) ([2]; Table 9, 1 nM testosterone, 0.0012% compound) was 21, the “Lipids, % change” value [2, 3] was −34 and the “Lipids, % inhibition” value [2, 3] was 38%. The “Lipids, % change” value [2, 4] was −29 and the “Lipids, % inhibition” value [2, 4] was 32%.

`CC(O)CO` (stereo not drawn) [Propylene Glycol] was tested, and the Lipase activity ([1]; Table 10, product at 1% by weight, 60 minutes at 37° C., control 4.21) was 6.40 +/− 0.05 mU/m1.

In the case of `O=C1O[C@H]([C@@H](O)CO)C(O)=C1O` [Vitamin C, reference compound], the Lipase activity ([1]; Table 10, positive reference, concentration not given, 60 minutes at 37° C., control 4.21) is reported as 2.11 +/− 0.01 mU/m1 and the Lipase activity ([1]; Table 11, positive reference, concentration not given, control 4.72) is reported as 1.36 +/− 0.01 mU/ml.

For `C[C@]12C=CC(=O)N[C@@H]1CC[C@@H]1[C@@H]2CC[C@]2(C)[C@@H](C(=O)Nc3cc(C(F)(F)F)ccc3C(F)(F)F)CC[C@@H]12` [dutasteride, reference compound], the inhibition at 1 µM ([2]; Table 8, cells stimulated with 1 nM testosterone, 1 μM dutasteride, read-out: Lipids (fluorescence intensity)/number of cells, % inhibition) was 113%, the “Lipids (fluorescence intensity)/number of cells, % stimulation” value ([2]; Table 8, cells stimulated with 1 nM testosterone, 1 μM dutasteride, stimulated untreated cells = 100) was 22% and the “Lipids, % change” value ([2]; Table 9, 1 nM testosterone, 1 μM dutasteride) was −82. The inhibition at 1 µM ([2]; Table 9, 1 nM testosterone, 1 μM dutasteride, read-out: Lipids, % inhibition) was 91%.
